Laboratory results reported in patent publication US20220113299A1, “METHOD OF DYNAMICS ANALYSIS FOR COMPOUND IN CELL” (Hitachi High-Tech Corporation, priority 2019, published 2022).

System: hepatocytes
Assay: kinetic analysis of compound efflux in cultured hepatocytes (Test Sections 1 to 3, fluorescence measurement)
Type: in vitro ADME, rat
Conditions: 30 minutes; for ratio of the amount of compound excreted into the bile duct to the totality of compound taken up into the cells (BiRD): (B1-B2)/(C1+C2), EGTA disrupted vs maintained system, 37° C.; for ratio of the amount of compound excreted into the bile duct to the totality of compound taken up into the cells (BiRD) / ratio of the amount of compound excreted via transporter to the amount of compound excreted basolaterally (RexEMTP): pattern 1; for ratio of the amount of compound excreted via transporter to the amount of compound excreted basolaterally (RexEMTP): (B2-B3)/B2, cultured hepatocytes, 37° C. vs 4° C.; for Sup fraction (fraction of the first basolateral efflux), index for tendency to remain or not to remain in the cells: pattern 2: sum of Steps 4, 5 and 6 = 100%, Step 4, 37° C., in %
Description: Hepatocytes were prepared by in-situ collagenase perfusion method. The details are as follows. A rat (5-6 week-old) is anesthetized with pentobarbital and undergoes laparotomy, followed by insertion of a catheter into the portal vein and injection of a preperfusion solution (a Ca^2+ and Mg^2+ free Hanks' solution containing glycol ether diaminetetraacetic acid (EGTA)). After checking that blood is sufficiently removed from the liver, the perfusion is stopped. Perfusion is performed with the perfusate being changed to a collagenase solution. In this embodiment, the perfusion operates with a Hanks' solution containing 0.05% collagenase, but the collagenase solution is not limited to this. After checking that the tissue between the cells has been digested by collagenase, the perfusion is stopped. The liver is excised, sliced in a cooled Hanks' solution, and separated into cells by pipetting. Damaged hepatocytes are removed by centrifugation at 500 G for 5 minutes with an isotonic Percoll solution. The viability of the resulting hepatocytes is determined by the trypan blue-exclusion test. Hepatocytes having a viability of 85% or more are used for culture. Here, hepatocytes having a viability of 85% or more are used for culture, but such culture is not necessarily limited to the condition. In addition, the preparation of hepatocytes is not necessarily limited to that by in situ collagenase perfusion method. The hepatocytes to be used are not limited to those derived from a rat, and the strain of rat is not limited. This embodiment employs hepatocytes, but cells are not limited to this.
(3) Cells prepared by a procedure as above are suspended in a medium. The hepatocytes are suspended at a density of 5×10^5 cells/mL in the medium and plated onto a commercially available culture dish coated with collagen. The density upon plating, the medium, and the culture plate 001 are not limited. The culture plate is illustrated in FIG. 7. A 24-well culture plate having 24 culture regions (wells, 002) is here illustrated, but the culture plate is not limited to this, and any of containers in other shapes may be used as long as it can contain predetermined cells. After plating, culture is started under conditions of 5% CO2 and 37° C. using a CO2 incubator. After 18 hours or more, the first medium change is performed. This embodiment employs a FCS-medium, which is a medium resulting from removal of FCS from the medium (10% FCS+) and supplementation with Matrigel, as the medium to be used for culture 18 hours after the plating. However, the medium can be any medium. After this, medium change with the medium (FCS−) is performed every 24 hours. As described later, testing is performed under three different conditions in Step 5 (Test Sections 1, 2, and 3; described in detail in Step 5), three independent culture plates under the same conditions are prepared at this point. In Steps 0 to 4 and Step 5, the same testing operations are performed in all the three test sections.
The culture supernatant of the cells cultured in Step 0 for 4 days is removed, and 400 μL of Hanks' solution is added as a buffer. The cells are incubated at 37° C. for 10 minutes (FIG. 2, Step 1). The type and amount of buffer are not limited.
The buffer is removed, and then 200 μL of […] carboxydichlorofluorescein (CDF; a fluorescent reagent) is fed to the well. The plate is incubated at 37° C. for 30 minutes and then maintained at 4° C. for 5 minutes (FIG. 2, Step 2). The type, concentration, and amount of the reagent are not limited. CDF emits fluorescence and can therefore be easily quantified as a model reagent with a plate reader. The amount of administration, 200 μL, was chosen so that the cells as a whole in the well would be immersed in the reagent. The concentration of CDF may be a concentration conventionally used for a fluorescence assay of cells. This concentration is preferably applied also as an amount of the reagent for the detection with a plate reader. […]

ratio of the amount of compound excreted into the bile duct to the totality of compound taken up into the cells (BiRD) | ratio of the amount of compound excreted via transporter to the amount of compound excreted basolaterally (RexEMTP) | Sup fraction (fraction of the first basolateral efflux), index for tendency to remain or not to remain in the cells | Substance
4.92 | 52.52 | 39.29 | Rhodamine 123
18.58 | 41.08 | 70.82 | carboxydichlorofluorescein [CDF]
